Data as given in ChEMBL document CHEMBL1201862, “PubChem BioAssay data set” (2004).
Calls of active or inactive are those of the source.

Legend:
[1] = target: Glyceraldehyde-3-phosphate dehydrogenase (Homo sapiens, UniProt P04406)
[2] = target: T1, Alkaline phosphatase, tissue-nonspecific isozyme (Homo sapiens, UniProt P05186); assay: human TNAP enzyme inhibitors, SAR follow-up, biochemical, luminescent, dose response (AID 1056)
T1 sequence (P05186 whole entry): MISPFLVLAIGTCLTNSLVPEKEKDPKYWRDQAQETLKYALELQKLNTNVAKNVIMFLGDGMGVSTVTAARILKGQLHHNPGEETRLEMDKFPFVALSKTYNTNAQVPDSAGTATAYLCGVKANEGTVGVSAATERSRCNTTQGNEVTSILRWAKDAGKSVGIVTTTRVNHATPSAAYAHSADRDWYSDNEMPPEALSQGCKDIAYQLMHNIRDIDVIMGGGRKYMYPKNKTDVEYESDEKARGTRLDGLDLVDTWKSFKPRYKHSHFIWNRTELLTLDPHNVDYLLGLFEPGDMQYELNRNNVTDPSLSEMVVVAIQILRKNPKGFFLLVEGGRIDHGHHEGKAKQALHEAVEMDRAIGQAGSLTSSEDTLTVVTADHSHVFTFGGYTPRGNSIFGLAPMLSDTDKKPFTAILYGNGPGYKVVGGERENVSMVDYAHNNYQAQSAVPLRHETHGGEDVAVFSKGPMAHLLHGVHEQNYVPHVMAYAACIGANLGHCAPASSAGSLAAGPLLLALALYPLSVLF

[3] = target: T2, Hexokinase HKDC1 (Homo sapiens, UniProt Q2TB90); assay: HKDC1 hexokinase inhibitors, dose response, biochemical, W721R variant (AID 504729); assay type: functional
T2 sequence (Q2TB90 whole entry): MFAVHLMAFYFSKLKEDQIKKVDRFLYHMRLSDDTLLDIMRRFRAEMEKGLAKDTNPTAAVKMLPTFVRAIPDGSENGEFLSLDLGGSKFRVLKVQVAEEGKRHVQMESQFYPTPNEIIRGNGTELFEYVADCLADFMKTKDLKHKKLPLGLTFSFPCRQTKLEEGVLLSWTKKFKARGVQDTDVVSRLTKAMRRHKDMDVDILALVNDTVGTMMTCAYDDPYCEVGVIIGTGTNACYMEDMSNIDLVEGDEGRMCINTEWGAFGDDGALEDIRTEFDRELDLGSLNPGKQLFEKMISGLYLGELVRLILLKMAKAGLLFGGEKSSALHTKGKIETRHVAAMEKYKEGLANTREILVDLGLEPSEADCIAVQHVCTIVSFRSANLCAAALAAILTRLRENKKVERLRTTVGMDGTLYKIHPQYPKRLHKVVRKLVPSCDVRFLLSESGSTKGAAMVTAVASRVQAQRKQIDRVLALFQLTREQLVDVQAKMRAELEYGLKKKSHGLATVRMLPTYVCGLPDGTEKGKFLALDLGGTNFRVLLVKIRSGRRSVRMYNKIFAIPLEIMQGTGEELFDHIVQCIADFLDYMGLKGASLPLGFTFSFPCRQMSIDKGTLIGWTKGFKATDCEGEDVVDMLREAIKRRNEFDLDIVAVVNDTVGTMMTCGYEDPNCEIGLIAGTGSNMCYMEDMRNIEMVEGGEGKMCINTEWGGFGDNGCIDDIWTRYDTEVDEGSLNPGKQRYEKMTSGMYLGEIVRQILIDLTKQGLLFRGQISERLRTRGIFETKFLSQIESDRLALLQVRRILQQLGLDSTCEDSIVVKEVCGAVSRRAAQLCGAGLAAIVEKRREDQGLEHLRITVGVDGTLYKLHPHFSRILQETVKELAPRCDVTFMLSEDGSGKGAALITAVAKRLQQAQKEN

[4] = target: T3, Voltage-gated N-type calcium channel alpha-1B subunit/Amyloid beta A4 precursor protein-binding family A member 1 (Homo sapiens, UniProt Q00975+Q02410); assay type: protein assay
T3 sequence (Q00975 whole entry): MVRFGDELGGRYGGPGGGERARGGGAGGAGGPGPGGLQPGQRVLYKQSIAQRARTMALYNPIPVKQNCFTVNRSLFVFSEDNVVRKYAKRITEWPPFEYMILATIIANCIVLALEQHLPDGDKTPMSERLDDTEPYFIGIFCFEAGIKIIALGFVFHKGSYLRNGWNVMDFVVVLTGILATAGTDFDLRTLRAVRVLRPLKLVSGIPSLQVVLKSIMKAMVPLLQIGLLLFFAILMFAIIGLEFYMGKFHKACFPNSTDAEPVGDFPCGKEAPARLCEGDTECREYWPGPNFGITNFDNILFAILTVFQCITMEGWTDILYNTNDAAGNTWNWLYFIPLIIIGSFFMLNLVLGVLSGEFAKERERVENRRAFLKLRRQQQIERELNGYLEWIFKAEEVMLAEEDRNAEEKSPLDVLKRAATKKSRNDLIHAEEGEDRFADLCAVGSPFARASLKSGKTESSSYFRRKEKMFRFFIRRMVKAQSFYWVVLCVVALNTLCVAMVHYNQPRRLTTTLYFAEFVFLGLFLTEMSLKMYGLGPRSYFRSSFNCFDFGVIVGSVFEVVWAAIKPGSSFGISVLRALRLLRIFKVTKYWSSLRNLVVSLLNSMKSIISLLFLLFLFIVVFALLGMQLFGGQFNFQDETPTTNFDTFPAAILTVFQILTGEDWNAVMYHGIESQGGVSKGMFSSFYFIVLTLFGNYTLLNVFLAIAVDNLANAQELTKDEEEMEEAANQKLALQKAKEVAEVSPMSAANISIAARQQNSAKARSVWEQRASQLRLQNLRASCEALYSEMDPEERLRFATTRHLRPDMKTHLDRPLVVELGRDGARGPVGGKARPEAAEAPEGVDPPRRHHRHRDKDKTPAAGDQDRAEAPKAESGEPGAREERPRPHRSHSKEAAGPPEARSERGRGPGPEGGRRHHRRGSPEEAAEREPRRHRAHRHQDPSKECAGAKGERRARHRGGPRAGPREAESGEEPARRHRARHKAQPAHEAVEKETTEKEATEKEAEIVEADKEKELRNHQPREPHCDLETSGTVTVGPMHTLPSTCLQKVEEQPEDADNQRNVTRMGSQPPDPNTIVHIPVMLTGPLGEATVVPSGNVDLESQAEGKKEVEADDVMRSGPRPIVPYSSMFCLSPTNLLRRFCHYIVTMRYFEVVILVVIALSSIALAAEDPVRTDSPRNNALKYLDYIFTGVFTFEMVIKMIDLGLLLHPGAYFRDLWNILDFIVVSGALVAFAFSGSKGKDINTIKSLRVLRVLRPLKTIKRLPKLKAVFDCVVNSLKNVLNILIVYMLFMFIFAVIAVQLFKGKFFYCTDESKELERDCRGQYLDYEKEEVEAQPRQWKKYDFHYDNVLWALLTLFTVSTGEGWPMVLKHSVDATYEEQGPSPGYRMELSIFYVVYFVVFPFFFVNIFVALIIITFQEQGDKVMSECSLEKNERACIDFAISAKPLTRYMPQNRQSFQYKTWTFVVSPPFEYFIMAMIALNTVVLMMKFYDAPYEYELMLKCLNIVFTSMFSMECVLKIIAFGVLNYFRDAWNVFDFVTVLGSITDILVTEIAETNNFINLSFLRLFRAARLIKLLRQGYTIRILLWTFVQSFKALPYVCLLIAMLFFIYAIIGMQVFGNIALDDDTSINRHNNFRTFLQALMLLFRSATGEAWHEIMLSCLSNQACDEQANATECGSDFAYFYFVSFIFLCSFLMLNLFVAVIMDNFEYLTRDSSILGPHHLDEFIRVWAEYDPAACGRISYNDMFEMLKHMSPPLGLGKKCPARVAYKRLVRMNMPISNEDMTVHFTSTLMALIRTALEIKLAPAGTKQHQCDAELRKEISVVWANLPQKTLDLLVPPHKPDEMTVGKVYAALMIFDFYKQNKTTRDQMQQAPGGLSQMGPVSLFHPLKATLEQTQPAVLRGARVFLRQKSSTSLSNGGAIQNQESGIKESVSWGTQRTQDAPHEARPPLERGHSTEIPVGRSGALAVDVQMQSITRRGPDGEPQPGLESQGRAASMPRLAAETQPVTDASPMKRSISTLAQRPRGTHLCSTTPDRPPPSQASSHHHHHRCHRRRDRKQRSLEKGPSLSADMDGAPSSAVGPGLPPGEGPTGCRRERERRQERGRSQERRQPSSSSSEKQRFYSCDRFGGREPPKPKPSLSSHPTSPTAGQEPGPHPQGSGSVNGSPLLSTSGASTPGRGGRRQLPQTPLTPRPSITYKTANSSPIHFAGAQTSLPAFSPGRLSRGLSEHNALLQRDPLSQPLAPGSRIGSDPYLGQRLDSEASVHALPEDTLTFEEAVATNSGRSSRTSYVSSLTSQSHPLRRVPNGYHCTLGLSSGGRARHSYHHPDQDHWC
T3 sequence (Q02410 whole entry): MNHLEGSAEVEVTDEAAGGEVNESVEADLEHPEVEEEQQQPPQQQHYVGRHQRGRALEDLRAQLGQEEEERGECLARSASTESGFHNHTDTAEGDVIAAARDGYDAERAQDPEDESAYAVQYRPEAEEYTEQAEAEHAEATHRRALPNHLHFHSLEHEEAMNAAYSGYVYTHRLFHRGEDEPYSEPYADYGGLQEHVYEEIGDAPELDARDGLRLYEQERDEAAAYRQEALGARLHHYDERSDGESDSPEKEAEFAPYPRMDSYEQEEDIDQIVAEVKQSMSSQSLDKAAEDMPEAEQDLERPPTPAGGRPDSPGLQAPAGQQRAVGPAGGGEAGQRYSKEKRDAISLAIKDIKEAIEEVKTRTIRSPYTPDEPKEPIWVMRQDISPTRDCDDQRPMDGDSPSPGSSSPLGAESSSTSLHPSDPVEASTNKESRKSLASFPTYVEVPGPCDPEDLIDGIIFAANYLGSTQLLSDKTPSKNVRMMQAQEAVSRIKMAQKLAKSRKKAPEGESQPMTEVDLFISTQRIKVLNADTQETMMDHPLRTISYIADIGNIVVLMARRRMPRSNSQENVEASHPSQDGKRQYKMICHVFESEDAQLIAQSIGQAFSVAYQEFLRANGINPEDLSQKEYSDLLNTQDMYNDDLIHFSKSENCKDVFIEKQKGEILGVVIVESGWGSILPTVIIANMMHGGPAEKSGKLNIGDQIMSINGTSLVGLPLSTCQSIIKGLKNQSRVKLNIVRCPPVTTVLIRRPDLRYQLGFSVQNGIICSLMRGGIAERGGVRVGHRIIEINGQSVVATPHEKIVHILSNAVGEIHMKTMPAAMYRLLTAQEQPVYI

[5] = target: T3, Voltage-gated N-type calcium channel alpha-1B subunit/Amyloid beta A4 precursor protein-binding family A member 1; assay type: protein assay; remark: listed apart in the source
[6] = target: G-protein coupled receptor 55 (Homo sapiens, UniProt Q9Y2T6); assay: GPR55 agonists via beta-arrestin recruitment, primary screen, imaging, U2OS cells, beta-arrestin-GFP redistribution (AID 1961); assay type: functional
G-protein coupled receptor 55, sequence (Q9Y2T6 whole entry): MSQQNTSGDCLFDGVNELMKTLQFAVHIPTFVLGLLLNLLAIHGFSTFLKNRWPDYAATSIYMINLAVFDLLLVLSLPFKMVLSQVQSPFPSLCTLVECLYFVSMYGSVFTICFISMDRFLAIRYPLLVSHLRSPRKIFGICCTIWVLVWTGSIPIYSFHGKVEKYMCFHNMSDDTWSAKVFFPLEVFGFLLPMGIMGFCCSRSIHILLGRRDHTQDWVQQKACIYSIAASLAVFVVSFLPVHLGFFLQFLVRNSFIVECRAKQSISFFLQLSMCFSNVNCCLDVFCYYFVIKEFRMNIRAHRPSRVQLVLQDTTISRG

[7] = target: T4, Bcl-2-like protein 10 (Homo sapiens, UniProt Q9HD36); assay: displacers of TR3 peptide from Bcl-B, primary screen, selectivity assay for Bfl-1 inhibitor project, biochemical, fluorescence polarization, FITC-TR3 peptide (AID 748);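 further: fluorescence polarization from a fluorescein-labelled TR3 peptide binding purified Bcl-B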
T4 sequence (Q9HD36 whole entry): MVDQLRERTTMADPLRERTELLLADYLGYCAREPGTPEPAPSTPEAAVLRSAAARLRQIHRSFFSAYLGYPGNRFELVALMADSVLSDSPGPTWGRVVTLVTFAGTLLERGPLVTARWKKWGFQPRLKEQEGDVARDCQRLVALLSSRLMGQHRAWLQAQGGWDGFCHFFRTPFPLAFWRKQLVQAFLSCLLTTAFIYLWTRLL

[8] = target: Induced myeloid leukemia cell differentiation protein Mcl-1 (Homo sapiens, UniProt Q07820); assay type: functional
Induced myeloid leukemia cell differentiation protein Mcl-1, sequence (Q07820 whole entry): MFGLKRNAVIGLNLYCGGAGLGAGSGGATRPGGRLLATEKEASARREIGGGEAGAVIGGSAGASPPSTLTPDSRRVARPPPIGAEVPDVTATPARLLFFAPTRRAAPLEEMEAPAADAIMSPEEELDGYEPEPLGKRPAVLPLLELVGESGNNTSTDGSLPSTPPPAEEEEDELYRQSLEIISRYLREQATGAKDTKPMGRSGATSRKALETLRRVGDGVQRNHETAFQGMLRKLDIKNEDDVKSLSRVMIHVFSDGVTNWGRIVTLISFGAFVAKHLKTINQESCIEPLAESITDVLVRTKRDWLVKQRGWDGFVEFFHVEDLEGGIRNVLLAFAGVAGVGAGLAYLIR

[9] = target: T5, Estrogen receptor (Homo sapiens, UniProt P03372);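 further: potency for inhibiting coactivator peptide recruitment to the receptor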
T5 sequence (P03372 whole entry): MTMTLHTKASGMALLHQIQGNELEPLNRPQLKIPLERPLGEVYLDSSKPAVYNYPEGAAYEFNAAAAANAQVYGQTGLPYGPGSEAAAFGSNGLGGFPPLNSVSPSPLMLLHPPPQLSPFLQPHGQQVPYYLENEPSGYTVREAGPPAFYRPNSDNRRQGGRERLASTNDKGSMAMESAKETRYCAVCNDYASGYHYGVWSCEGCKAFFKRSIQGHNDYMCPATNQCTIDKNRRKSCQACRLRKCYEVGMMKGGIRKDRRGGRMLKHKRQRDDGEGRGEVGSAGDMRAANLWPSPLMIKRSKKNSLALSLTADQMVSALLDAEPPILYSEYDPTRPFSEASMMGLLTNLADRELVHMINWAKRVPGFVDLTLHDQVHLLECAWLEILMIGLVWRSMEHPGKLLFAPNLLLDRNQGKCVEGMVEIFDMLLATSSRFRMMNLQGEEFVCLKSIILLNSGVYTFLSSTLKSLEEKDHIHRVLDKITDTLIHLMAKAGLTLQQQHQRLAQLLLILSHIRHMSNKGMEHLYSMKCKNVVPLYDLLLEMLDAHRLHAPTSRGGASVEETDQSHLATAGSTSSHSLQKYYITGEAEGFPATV

[10] = inhibitors of intracellular T. cruzi replication, confirmation, NIH3T3 host cells, beta-gal luminescence (AID 2044); assay type: functional, cell-based;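 further: intracellular parasites grown in NIH/3T3 mouse fibroblasts as host cells; luminescent beta-galactosidase reporter signal from transgenic T. cruzi replicating inside host cells; inhibitors lower the luminescence signal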
[11] = cytotoxicity toward NIH3T3 fibroblasts, dose response, counter-screen, cell-based, ATP luminescence, mouse fibroblasts (AID 2010); assay type: functional;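 further: cells exposed to compound for about 90 hours before reading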
[12] = target: Estrogen receptor beta (Homo sapiens, UniProt Q92731);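 further: recombinant ER-beta bound to coactivator SRC1 peptide in presence of estradiol agonist; inhibitors block coactivator peptide binding and lower the FRET signal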
Estrogen receptor beta, sequence (Q92731 whole entry): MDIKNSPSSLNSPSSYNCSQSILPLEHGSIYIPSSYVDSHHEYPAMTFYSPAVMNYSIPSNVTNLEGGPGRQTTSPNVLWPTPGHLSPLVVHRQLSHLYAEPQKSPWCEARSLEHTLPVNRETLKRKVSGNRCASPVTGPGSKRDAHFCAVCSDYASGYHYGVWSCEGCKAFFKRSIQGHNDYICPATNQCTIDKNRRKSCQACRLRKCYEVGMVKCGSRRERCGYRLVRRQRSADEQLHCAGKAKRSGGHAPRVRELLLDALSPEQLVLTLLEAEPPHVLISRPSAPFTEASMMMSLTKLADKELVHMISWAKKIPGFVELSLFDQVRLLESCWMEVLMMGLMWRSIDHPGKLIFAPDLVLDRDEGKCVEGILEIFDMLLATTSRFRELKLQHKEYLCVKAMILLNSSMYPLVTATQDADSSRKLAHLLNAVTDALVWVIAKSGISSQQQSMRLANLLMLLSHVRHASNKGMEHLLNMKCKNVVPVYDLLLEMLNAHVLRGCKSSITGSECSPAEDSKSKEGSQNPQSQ

[13] = target: Intestinal-type alkaline phosphatase (Homo sapiens, UniProt P09923); assay: Dose Response confirmation of uHTS hits from a small molecule inhibitors of human intestinal alkaline phosphatase via a luminescent assay. [Related pubchem assays (depositor defined):AID2544, AID2574]; assay type: functional
[14] = target: T6, Mannose-6-phosphate isomerase (Homo sapiens, UniProt P34949); assay: inhibitors of human PMI, primary screen, biochemical, fluorescence intensity, coupled assay (AID 1209)
T6 sequence (P34949 whole entry): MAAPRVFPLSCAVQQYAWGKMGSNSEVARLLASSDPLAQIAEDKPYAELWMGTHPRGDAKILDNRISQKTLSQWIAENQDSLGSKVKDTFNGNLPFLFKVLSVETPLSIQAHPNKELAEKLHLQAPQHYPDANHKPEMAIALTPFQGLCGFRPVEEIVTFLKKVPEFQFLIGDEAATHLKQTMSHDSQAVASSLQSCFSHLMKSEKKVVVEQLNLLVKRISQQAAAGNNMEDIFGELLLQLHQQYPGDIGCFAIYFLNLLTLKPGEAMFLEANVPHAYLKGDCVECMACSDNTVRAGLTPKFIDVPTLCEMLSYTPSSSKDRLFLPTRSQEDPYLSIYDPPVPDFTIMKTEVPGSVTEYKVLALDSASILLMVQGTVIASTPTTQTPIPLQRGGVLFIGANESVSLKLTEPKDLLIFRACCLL

[15] = target: T6, Mannose-6-phosphate isomerase; assay: human PMI inhibitors, high substrate, primary screen, biochemical, fluorescence intensity, high mannose 6-phosphate (AID 1220)
[16] = target: T7, Apoptotic protease-activating factor 1 (Homo sapiens, UniProt O14727); assay type: functional
T7 sequence (O14727 whole entry): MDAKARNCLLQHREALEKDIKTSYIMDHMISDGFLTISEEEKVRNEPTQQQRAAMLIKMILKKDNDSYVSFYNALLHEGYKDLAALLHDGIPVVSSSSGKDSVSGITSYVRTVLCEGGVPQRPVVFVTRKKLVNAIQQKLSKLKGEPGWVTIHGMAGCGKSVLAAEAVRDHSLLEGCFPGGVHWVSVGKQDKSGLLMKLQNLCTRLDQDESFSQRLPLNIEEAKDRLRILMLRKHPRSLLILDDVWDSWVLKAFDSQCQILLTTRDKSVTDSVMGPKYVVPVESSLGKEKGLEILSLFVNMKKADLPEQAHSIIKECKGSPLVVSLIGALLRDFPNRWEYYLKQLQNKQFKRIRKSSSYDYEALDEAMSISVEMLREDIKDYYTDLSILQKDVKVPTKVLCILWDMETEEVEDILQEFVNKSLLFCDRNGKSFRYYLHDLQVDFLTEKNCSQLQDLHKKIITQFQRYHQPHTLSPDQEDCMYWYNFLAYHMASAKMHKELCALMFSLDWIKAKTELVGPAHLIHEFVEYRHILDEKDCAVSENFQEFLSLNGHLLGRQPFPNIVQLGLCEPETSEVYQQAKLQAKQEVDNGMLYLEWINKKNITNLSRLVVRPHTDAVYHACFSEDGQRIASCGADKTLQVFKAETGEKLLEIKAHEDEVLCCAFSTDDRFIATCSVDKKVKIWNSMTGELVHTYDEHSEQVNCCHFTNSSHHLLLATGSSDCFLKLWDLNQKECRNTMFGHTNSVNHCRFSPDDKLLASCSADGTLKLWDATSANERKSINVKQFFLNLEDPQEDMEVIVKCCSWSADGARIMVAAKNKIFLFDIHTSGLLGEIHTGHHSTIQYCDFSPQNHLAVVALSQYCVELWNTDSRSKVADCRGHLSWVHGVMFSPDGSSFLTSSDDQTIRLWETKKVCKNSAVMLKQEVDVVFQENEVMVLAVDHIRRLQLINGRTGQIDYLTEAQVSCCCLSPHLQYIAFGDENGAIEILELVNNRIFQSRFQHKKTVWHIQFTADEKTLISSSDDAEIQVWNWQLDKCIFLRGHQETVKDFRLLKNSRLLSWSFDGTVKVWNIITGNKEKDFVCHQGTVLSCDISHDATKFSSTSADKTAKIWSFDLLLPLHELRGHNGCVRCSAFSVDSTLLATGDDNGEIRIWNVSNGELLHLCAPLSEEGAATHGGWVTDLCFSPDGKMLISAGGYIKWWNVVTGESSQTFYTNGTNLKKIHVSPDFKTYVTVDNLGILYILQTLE

Glyceraldehyde-3-phosphate dehydrogenase, sequence (P04406 whole entry): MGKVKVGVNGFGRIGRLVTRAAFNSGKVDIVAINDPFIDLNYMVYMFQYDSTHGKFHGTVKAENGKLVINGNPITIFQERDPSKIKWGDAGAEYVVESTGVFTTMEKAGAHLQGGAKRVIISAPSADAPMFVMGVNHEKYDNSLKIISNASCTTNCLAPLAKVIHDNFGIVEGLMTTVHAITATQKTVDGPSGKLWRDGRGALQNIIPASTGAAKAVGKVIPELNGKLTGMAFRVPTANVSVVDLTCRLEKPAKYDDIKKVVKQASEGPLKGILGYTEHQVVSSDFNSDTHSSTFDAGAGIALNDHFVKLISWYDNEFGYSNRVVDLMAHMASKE

In the case of `O=C1[C@H]2CCCC[C@H]2C(=O)N1c1nnc(Cc2ccc(F)cc2)[nH]1`, the IC50 [1] is reported as > 100 µM (not active) and the IC50 [2] is reported as 10.2 µM (active).

In the case of `Cc1ccc2[nH]c(SCC(=O)Nc3ccc(O)c(C(=O)O)c3)nc2c1`, the IC50 [1] is reported as > 100 µM (not active).

With `Cc1nc2c(c(=O)c3ccccc3n2C)c(=O)n1-c1ccccc1` the IC50 [3] was 11.8 µM (active).

For `CC1=C(C(=O)O)N2C(=O)C(NC(=O)c3nn(C)c(C)c3Cl)C2SC1` (stereo unspecified), the IC50 [4] was 9.8 µM (active) and the IC50 [5] was > 50 µM (inactive).

With `CC(=O)Nc1ccc(SC[C@H](CC(C)C)N2CCN(CCc3ccccc3)CCC2=O)cc1` the EC50 [6] was 9 µM (active).

With `C=CCN1C(=O)/C(=C2/C(=O)N(CC(=O)O)c3ccccc32)S/C1=N/c1nccs1` the IC50 [7] was 3.03 µM (active) and the IC50 [8] was 2.78 µM (active).

For `Cc1c(Cl)cnc(NC(=O)COC(=O)C(NC(=O)c2ccco2)C(C)C)c1Cl` (stereo unspecified), the IC50 [7] was 18.2 µM (active).

For `COC(=O)c1cc2ccsc2n1CC(=O)Nc1ccc(N(C)C)cc1`, the IC50 [9] was 47.3 µM (not active), the EC50 [10] was 4.34 µM (active) and the EC50 [11] was > 30 µM (not active).

For `Cc1cc(Cl)c(S(=O)(=O)Nc2ccc3c(c2)OCO3)cc1OCC(N)=O`, the IC50 [9] was > 50 µM (not active) and the IC50 [12] was > 50 µM (not active).

In the case of `CCCN(CCC)c1nc2c(C)cccn2c(=O)c1/C=C1/SC(=S)N(Cc2ccco2)C1=O`, the EC50 [10] is reported as 0.352 µM (active), the EC50 [11] is reported as > 30 µM (not active) and the EC50 [6] is reported as 2.97 µM (active).

For `COc1ccccc1Oc1ccc(S(=O)(=O)Nc2cccnc2)cc1`, the IC50 [1] was > 100 µM (not active) and the IC50 [2] was > 100 µM (inactive).

For `O=C(CN1CCN(C(=O)N2CCCCC2)CC1)Nc1ccc(F)cc1`, the IC50 [13] was > 100 µM (inactive).

With `Cc1snc(SCC(=O)c2ccc([N+](=O)[O-])cc2)c1C#N` the IC50 [14] was 33.9 µM (active).

For `CCCCCn1c(NC(=O)c2ccco2)c(C(=O)OCC)c2nc3ccccc3nc21`, the IC50 [14] was > 50 µM (not active), the IC50 [15] was > 50 µM (not active) and the IC50 [16] was 20.3 µM (active).

In the case of `N#CC(C#N)=NNc1ccc(S(N)(=O)=O)cc1`, the IC50 [4] is reported as 16.9 µM (active), the IC50 [5] is reported as > 50 µM (inactive) and the IC50 [8] is reported as 4.71 µM (active).

For `CC(C)c1nc2oc3c(NCCO)ncnc3c2c2c1COC(C)(C)C2`, the IC50 [3] was 3.39 µM (active).

In the case of `Cc1cc(C)nc(NC(=O)CSc2nn(C)c(=S)s2)n1`, the IC50 [9] is reported as 8.77 µM (active).

For `CSc1nnc(NC(=O)CSc2nc(C)cc(C)n2)[nH]1`, the IC50 [2] was > 100 µM (inactive).
